Measurements: a melting point compilation (Tetko et al.; mined from patent text by program, amines drawn as free bases though some values may be those of a salt)

| Structure (SMILES) | melting point [°C] |
| --- | --- |
| O=C(O)c1ccc(N2CCOCC2)c(NC(=O)C(CS)Cc2ccccc2)c1 (centres undefined) | 218 to 222 |
| COc1ccc(C2=NO[C@]3(CCOC3)C2)cc1OC1CCCC1 | 110 |
| CC1(C)OC(=O)Nc2ccc(Br)cc21 | 199 to 200 |
| CCCCCCCCCCOS(=O)(=O)NC(=O)Nc1c(C(C)C)cccc1C(C)C | 133 to 135 |
| O=C(Nc1cc(C(F)(F)F)cc(C(F)(F)F)c1)c1ccccc1O | 196 to 198 |
| c1ccc(COc2cc(OCc3ccccc3)c3ccncc3c2)cc1 | 113 to 115 |
| COc1cccc2c1OC(CO)CC2 (centres undefined) | 57 to 58 |
| O=C(O)c1cc2cc(Cl)ccc2nc1NC(Cc1c[nH]c2cc(F)ccc12)C(=O)O (centres undefined) | 170 to 174 |
| COC(=O)c1nc(Br)cc(N=[N+]=[N-])c1Cl | 84 to 86 |
| CCCCCCCCCCC(O)C(=O)N[C@@H](CCCC)CCC(=O)O (some centres undefined) | 53 to 55 |
| CCc1ccc(N2CCN(c3c(C)c(C)c4c(c3C)CC(C)(C)O4)CC2)cc1 | 152 to 155 |
| Cc1nc(N2CCN(CCCC(F)(F)F)C2=O)sc1C(=O)NCc1ccncc1 | 178 to 181 |
| O=C(Nc1ccc(Oc2ccnc(-n3ccnc3)n2)c2ccccc12)c1cc(F)cc(N2CCCCC2)c1 | 175 to 176 |
| OCc1cn(Cc2ccccc2)nc1OCc1ccccc1 | 79 to 80 |
| N[C@H](Cc1cccc(C(=O)c2ccccc2)c1)C(=O)O | 230 to 231 |
| CC(C)(C)OC(=O)Nc1ccc(-c2ccc(Cl)c(Cl)c2)cc1N | 169 to 171 |
| CC(=O)SCCC(=O)NC1(C(=O)O)CCCC1 | 127 to 128 |
| COc1ccc2cc(C(C)CC(C)=O)cc(F)c2c1 (centres undefined) | 38 to 39 |
| COC(OC)c1ccc2c(c1)C(C)(C)C(=O)CC2(C)C | 91 to 92 |
| Cc1cc(-n2cncn2)c2cccc(OCc3c(Cl)ccc(S(=O)(=O)N4CCC[C@H]4C(=O)NCC4CCN(C(=O)OC(C)(C)C)CC4)c3Cl)c2n1 | 94 |
| CCOC(=O)CCc1cccc(C2COc3c(C)c(C)c(NC(=O)CC(C)(C)C)c(C)c32)c1 (centres undefined) | 136 to 138 |
| CC(C)(C)c1cc(N=C2CCCc3cc4c(nc32)C(=Nc2cc(C(C)(C)C)cc(C(C)(C)C)c2)CCC4)cc(C(C)(C)C)c1 | 129 to 132 |
| CCCCNc1nc(C)c(C(=O)c2ccc(Cl)c([N+](=O)[O-])c2)s1 | 125 to 128 |
| CC(C)(C)OC(=O)N1CC=C(c2ccc(N)cc2F)CC1 | 96 to 98 |
| CCc1cnc(CC(C#Cc2ccccc2)c2ccc(OC)c(OC3CCCC3)c2)o1 (racemic) | 94 to 96 |
| O=C1OC(c2ccccc2)=NC1=Cc1cccnc1 | 164 |

| Structure (SMILES) | melting point [°C] |
| --- | --- |
| CCCCCCc1c(CCCC)nc2ncnn2c1N | 134 to 136 |
| CCOC(=O)CCc1cccc2c1NC(=O)CC2 | 102 to 103 |
| CC(CF)(CF)C(=O)NC(CO)c1ccc(C(C)(C)C)cc1 (centres undefined) | 141 |
| Nc1nnc(-c2cc(Cl)cc(Cl)c2Cl)c(N)n1 | 232 to 235 |
| CSC1C(=O)Nc2c(Oc3c(Cl)cccc3Cl)cccc21 (centres undefined) | > 230 |
| O=C(NO)[C@H](CNCS(=O)(=O)c1ccc(OCc2ccccc2)cc1)N1CCCCC1 | 102 |
| CC(Oc1ccc(Oc2ccc(Cl)cc2Cl)cc1)C(=O)N1CCCO1 (centres undefined) | 115 to 118 |
| O=C(O)CCC(=NO)c1ccc(-c2ccccc2F)cc1 | 150 to 152 |
| COC(=O)CCc1oc(-c2ccc3c(c2)OCO3)nc1-c1ccc(Cl)cc1 | 123 to 124 |
| O=[N+]([O-])c1ccc(CO)c(Cl)c1 | 62 to 64 |
| C[C@@H]1O[C@](C#CC2CC2)(C(F)(F)F)c2c(ccc(F)c2F)NC1=O (relative stereo) | 219 to 220 |
| CC12CCC3c4ccc(C(=O)O)cc4CCC3C1CCC2C(=O)c1cccs1 (centres undefined) | 177 to 179 |
| COc1cc2nc(SCc3cc(N(C)C)c(Cl)cn3)[nH]c2cc1OC | 116 to 117 |
| Cn1ccc2cc(NC(=O)c3cc4ccccc4n3Cc3cccc(C(F)(F)F)c3)ccc21 | 189 to 190 |
| FC(F)(F)c1cccc(CCc2nnc(-c3ccc4ncoc4c3)o2)c1 | 117 to 118 |
| Cc1cc2c(cc1Cl)C(c1ccccc1Cl)C(=O)N2 (centres undefined) | 203 to 209 |
| CCCn1c(=O)c2nc([C@@H]3CCC[C@H]3c3ccccc3)[nH]c2n(CCC)c1=O (relative stereo) | 152 to 153 |
| COCc1cc2c(s1)CCCc1cc(=O)n(-c3ccc(Cl)cc3)nc1-2 | 135 to 137 |
| Cc1cc([N+](=O)[O-])ccc1C(=O)Nc1ccc2ccc(Cl)nc2n1 | 229 |
| O=C(O)CCc1cn(Cc2ccc3cc(OCc4cccnc4)ccc3c2)cc1-c1ccccc1 | 158 to 159 |
| NC(=O)CN1CCC1=O | 112 to 113 |
| CCc1cccc(CC)c1NCc1n[nH]c(=S)n1C | 117 to 121 |
| COc1ccc2nc(COc3ccc(CC(Nc4ccccc4C(=O)c4ccccc4)C(=O)O)cc3)n(C)c2c1 (centres undefined) | 140 to 146 |
| CC(C)[C@H](C[C@H](O)[C@H](C)NC(=O)OC(C)(C)C)C(=O)NN | 55 to 62 |
| O=S(=O)(Nc1ccc(Cl)c(F)c1)c1ccccc1 | 115 to 116 |
| COc1cc(-c2cc3c(Cl)ccnc3[nH]2)cc(OC)c1OC | 188 to 190 |

| Structure (SMILES) | melting point [°C] |
| --- | --- |
| CCCCN1C(=O)c2cncnc2N(C(=O)CN2CCOCC2)c2ccccc21 | 127 to 128 |
| c1ccc(C(=C2CCNCC2)c2ccccc2)cc1 | 85 to 86 |
| c1ccc2c(SCc3ccncc3)ncnc2c1 | 117 to 118 |
| COc1cc2oc(=O)c(CCOS(C)(=O)=O)c(C)c2cc1OC | 188 to 191 |
| COC(=O)CN1C(=O)[C@H](C(C)C)Oc2c(C(C)C)cccc21 | 67 to 68 |
| COc1cc2c(c(Cl)c1Cl)CCC2 | 78 to 82 |
| CN(C)c1nc2c(c(=O)[nH]1)CC(S(=O)(=O)c1ccccc1)CC2 (centres undefined) | 249 |
| CN1c2ccccc2-c2nc3ccc(/C=C/C#N)cc3c3cccc1c23 | 262 to 264 |
| CCOC(=O)c1cnc(Cl)c2c(C)n[nH]c12 | 180 |
| O=[N+]([O-])c1ccc(N=Nc2cc(OCCO)c(N(CCCO)CCCO)cc2OCCO)cc1 | 132 to 134 |
| CC(c1oc2ccccc2c(=O)c1-c1cccc(F)c1)n1nc(-c2cccc3[nH]ncc23)c2c(N)ncnc21 (centres undefined) | 231 to 233 |
| COc1ccc(S(=O)(=O)N(Cc2cccnc2)c2c(C(=O)O)cnc3snc(C)c23)cc1 | 234 to 236 |
| CCCCCSc1c[nH]nc1C1=CCCN(C)C1 | 100 to 101 |
| COc1cc(-c2nc3cc(F)ccc3s2)ccc1OC(=O)c1cccc([N+](=O)[O-])c1 | 190 |
| COc1ccc(-c2[nH]cnc2-c2cc(OC)c(N)c(OC)c2)cc1F | 101 to 103 |
| NNC(=O)c1ccc(C(=O)O)cc1 | 235 to 236 |
| NC(=O)c1ccccc1N1CCOCC1 | 112 to 119 |
| CC(=O)c1c2cnnc-2sn1C | 130 to 131 |
| CC(O)(c1ccccc1)c1ccncc1 (centres undefined) | 141 to 144 |
| CCOC(=O)c1sc(Oc2ccc3c(c2)OCC3)c2c1CCc1cnn(C)c1-2 | 137 to 138 |
| O=C(CCC(F)(F)F)Oc1cc(=O)n(-c2ccccc2)c2ncccc12 | 193 to 195 |
| C=CC(=O)Nc1ccc2ccc(Cl)nc2n1 | 200 |
| Cn1nccc1CCS(=O)(=O)Cc1ccc(OCc2coc(C=Cc3ccc(C(F)(F)F)cc3)n2)cc1 | 204 |
| COc1cc(C=NNC2=NCCc3ccccc32)cc(OC)c1O | 232 to 233 |
| NC(=O)c1c(Cl)c(-c2ccccc2)n2c1CN(C(=O)Nc1ccc(C(=O)O)cc1)CC2 | 281 to 283 |
| O=C(Cl)c1cccc(Oc2ccc(S(=O)(=O)c3ccc(Oc4cccc(C(=O)Cl)c4)cc3)cc2)c1 | 113 to 116 |

| Structure (SMILES) | melting point [°C] |
| --- | --- |
| O=C(O)C1CCN(C(=O)OCC2c3ccccc3-c3ccccc32)CC1 | 187 to 189 |
| Nc1nc(=O)[nH]c2cccnc12 | > 300 |
| COc1ccc2c(c1)CCC1C2CCC2(C)C(O)C(N)CC12 (centres undefined) | 159 to 161 |
| COc1cccc(-n2nc(C)c3ccc([N+](=O)[O-])cc32)c1C#N | 244 |
| CC(C)c1cccc(C(C)C)c1NC(=O)CN1CCN(CCSc2nc3cccc(-c4cc[nH]n4)c3o2)CC1 | 181 to 183 |
| CC1Cc2cccc(S(N)(=O)=O)c2S1(=O)=O (centres undefined) | 167 to 169 |
| O=C(O)c1ccc(F)c2c1C=CCO2 | 224 to 226 |
| FC(F)C(F)(F)Sc1nc(-c2cccs2)c(-c2cccs2)[nH]1 | 162 to 164 |
| O=C(NCCc1ccc(O)c(F)c1)OCc1ccccc1 | 89 to 90 |
| CC(C)(C)C(=O)c1c[nH]c2ncc(-c3cccc(NC4CCCC4O)c3)nc12 (centres undefined) | 178 to 180 |
| COC(=O)c1nc(Cl)sc1-c1cccc(F)c1 | 99 to 100 |
| O=C(Nc1ccc(C(=O)N2CCCc3ccccc32)cc1)c1cccc(O)c1 | 217 to 218 |
| O=S(=O)(CCl)N(Cc1cccnc1)c1ccc(Cl)cc1 | 98 to 100 |
| CN1CCCC(c2cccc3c2CC(=O)N3)C1 (centres undefined) | 160 |
| CC(=NNC(=S)NCCN1CCOCC1)c1ccccn1 | 168 to 169 |
| N#CC1=C(C#N)Sc2nc3cc(Cl)ccc3nc2S1 | 278 to 280 |
| CCOC(=O)c1c(N2CCN(C(=O)c3cccs3)CC2)c2cnccc2n(Cc2ccc(F)cc2)c1=O | 132 |
| Cc1cc(=O)n(C)c(=O)n1C | 113 to 114 |
| COc1ccc(CCN(C)CCCCc2ccc(NC(=O)c3cccc4c(=O)c5cccc(OC)c5[nH]c34)cc2)cc1OC | 170 |
| COC(=O)N(C)CCc1ccc(N)c(CS(=O)(=O)c2ccccc2)c1 | 95 to 96 |
| CS(=O)(=O)OCCCCC1C(=O)Nc2cc(F)ccc21 (centres undefined) | 106 to 108 |
| NC(=O)c1[nH]nnc1O | 191 to 192 |
| CC(C)(C)C(=O)C(CS(=O)(=O)c1ccc(Cl)cc1)n1cncn1 (centres undefined) | 134 |
| COc1nc(N)ccc1C(=O)CCC1CCN(CC2CCCCC2)CC1 | 73.2 |
| CC(=O)NCCCc1ccc(CCl)cc1 | 89 to 90 |
| OC(CCc1c[nH]cn1)(c1ccccc1)c1ccccc1 | 189 to 191 |
